Assays:
Type in all cases: cell-based
Campylobacter jejuni = assay: Expected efficacy of antibiotic agents; conditions: Gram: neg
Legionella pneumophila = conditions: expected efficacy; Gram: neg
Bacteroides fragilis = assay: Expected efficacy of antibiotic agents; conditions: Gram: anaer
Clostridium difficile = assay: Expected efficacy of antibiotic agents; conditions: Gram: anaer
Salmonella typhi = assay: Expected efficacy of antibiotic agents; conditions: Gram: neg
Shigella sonnei = assay: Expected efficacy of antibiotic agents; conditions: Gram: neg
Acinetobacter lwoffii = assay: Expected efficacy of antibiotic agents; conditions: Gram: neg
Morganella morganii = assay: Expected efficacy of antibiotic agents; conditions: Gram: neg
Providencia rettgeri = assay: Expected efficacy of antibiotic agents; conditions: Gram: neg
Proteus mirabilis = assay: Expected efficacy of antibiotic agents; conditions: Gram: neg
Clostridium perfringens = conditions: expected efficacy; Gram: anaer
Streptococcus pneumoniae = assay: Expected efficacy of antibiotic agents; conditions: Gram: pos
Corynebacterium jeikeium = assay: Expected efficacy of antibiotic agents; conditions: Gram: pos
Pseudomonas aeruginosa = assay: Expected efficacy of antibiotic agents; conditions: Gram: neg
Streptococcus pyogenes = assay: Expected efficacy of antibiotic agents; conditions: Gram: pos
Acinetobacter baumannii = assay: Expected efficacy of antibiotic agents; conditions: Gram: neg
Klebsiella oxytoca = assay: Expected efficacy of antibiotic agents; conditions: Gram: neg
Francisella tularensis = conditions: expected efficacy; Gram: neg
Escherichia coli = assay: Expected efficacy of antibiotic agents; conditions: Gram: neg
Enterobacter aerogenes = assay: Expected efficacy of antibiotic agents; conditions: Gram: neg
Shigella boydii = assay: Expected efficacy of antibiotic agents; conditions: Gram: neg
[1] = test system: Haemophilus parainfluenzae; assay: Expected efficacy of antibiotic agents; conditions: Gram: neg
[2] = test system: Viridans group streptococci; assay: Expected efficacy of antibiotic agents; conditions: Gram: pos
Neisseria gonorrhoeae = assay: Expected efficacy of antibiotic agents; conditions: Gram: neg
Peptostreptococcus = assay: Expected efficacy of antibiotic agents; conditions: Gram: pos
Providencia stuartii = assay: Expected efficacy of antibiotic agents; conditions: Gram: neg
Citrobacter diversus = assay: Expected efficacy of antibiotic agents; conditions: Gram: neg
Enterococcus faecalis = assay: Expected efficacy of antibiotic agents; conditions: Gram: pos
Enterobacter cloacae = assay: Expected efficacy of antibiotic agents; conditions: Gram: neg
Vibrio cholerae = assay: Expected efficacy of antibiotic agents; conditions: Gram: neg
[3] = test system: Corynebacterium urealyticum; assay: Expected efficacy of antibiotic agents; conditions: Gram: pos
[4] = test system: Staphylococcus aureus (MSSA); assay: Expected efficacy of antibiotic agents; conditions: Gram: pos
Serratia marcescens = assay: Expected efficacy of antibiotic agents; conditions: Gram: neg
Enterococcus faecium = assay: Expected efficacy of antibiotic agents; conditions: Gram: pos
[5] = test system: Acinetobacter calcoaceticus; assay: Expected efficacy of antibiotic agents; conditions: Gram: neg
Moraxella catarrhalis = assay: Expected efficacy of antibiotic agents; conditions: Gram: neg
Haemophilus ducreyi = assay: Expected efficacy of antibiotic agents; conditions: Gram: neg
Shigella dysenteriae = assay: Expected efficacy of antibiotic agents; conditions: Gram: neg
Chlamydia trachomatis = assay: Expected efficacy of antibiotic agents; conditions: Gram: n/a
Neisseria meningitidis = assay: Expected efficacy of antibiotic agents; conditions: Gram: neg
Chlamydia pneumoniae = assay: Expected efficacy of antibiotic agents; conditions: Gram: n/a
Klebsiella pneumoniae = assay: Expected efficacy of antibiotic agents; conditions: Gram: neg
Yersinia pestis = conditions: expected efficacy; Gram: neg
Citrobacter freundii = assay: Expected efficacy of antibiotic agents; conditions: Gram: neg
Shigella flexneri = assay: Expected efficacy of antibiotic agents; conditions: Gram: neg
Streptococcus agalactiae = assay: Expected efficacy of antibiotic agents; conditions: Gram: pos
Proteus vulgaris = assay: Expected efficacy of antibiotic agents; conditions: Gram: neg
Enterobacter sakazakii = assay: Expected efficacy of antibiotic agents; conditions: Gram: neg
Haemophilus influenzae = assay: Expected efficacy of antibiotic agents; conditions: Gram: neg
[6] = test system: Klebsiella (Calymmatobacterium) granulomatis; assay: Expected efficacy of antibiotic agents; conditions: Gram: neg
Mycoplasma pneumoniae = assay: Expected efficacy of antibiotic agents; conditions: Gram: n/a
[7] = test system: Methicillin resistant staph aureus (MRSA); assay: Expected efficacy of antibiotic agents; conditions: Gram: pos
Bordetella pertussis = assay: Expected efficacy of antibiotic agents; conditions: Gram: neg
[8] = test system: Staphylococcus epidermidis; assay: Expected efficacy of antibiotic agents; conditions: Gram: pos
Chlamydia psittaci = conditions: expected efficacy; Gram: n/a
Diphtheroids = assay: Expected efficacy of antibiotic agents; conditions: Gram: pos
Rickettsiae = conditions: expected efficacy; Gram: neg
Pseudomonas fluorescens = assay: Expected efficacy of antibiotic agents; conditions: Gram: neg
Brucella species = conditions: expected efficacy; Gram: neg

CO/N=C(\C(=O)N[C@@H]1C(=O)N2C(C(=O)O)=C(CSc3nc(=O)c(=O)[nH]n3C)CS[C@H]12)c1csc(N)n1 [Ceftriaxone]
yes: efficacy against Bacteroides fragilis (Bacteroides fragilis) | efficacy against Salmonella typhi (Salmonella typhi) | efficacy against Shigella sonnei (Shigella sonnei) | efficacy against Morganella morganii (Morganella morganii) | efficacy against Providencia rettgeri (Providencia rettgeri) | efficacy against Proteus mirabilis (Proteus mirabilis) | efficacy against Clostridium perfringens (Clostridium perfringens) | efficacy against Streptococcus pneumoniae (Streptococcus pneumoniae) | efficacy against Streptococcus pyogenes (Streptococcus pyogenes) | efficacy against Klebsiella oxytoca (Klebsiella oxytoca) | efficacy against Escherichia coli (Escherichia coli) | efficacy against Enterobacter aerogenes (Enterobacter aerogenes) | efficacy against Shigella boydii (Shigella boydii) | efficacy against Haemophilus parainfluenzae [1] | efficacy against Viridans group streptococci [2] | efficacy against Neisseria gonorrhoeae (Neisseria gonorrhoeae) | efficacy against Peptostreptococcus (Peptostreptococcus) | efficacy against Providencia stuartii (Providencia stuartii) | efficacy against Citrobacter diversus (Citrobacter diversus) | efficacy against Enterobacter cloacae (Enterobacter cloacae) | efficacy against Staphylococcus aureus (MSSA) [4] | efficacy against Serratia marcescens (Serratia marcescens) | efficacy against Moraxella catarrhalis (Moraxella catarrhalis) | efficacy against Haemophilus ducreyi (Haemophilus ducreyi) | efficacy against Shigella dysenteriae (Shigella dysenteriae) | efficacy against Neisseria meningitidis (Neisseria meningitidis) | efficacy against Klebsiella pneumoniae (Klebsiella pneumoniae) | efficacy against Citrobacter freundii (Citrobacter freundii) | efficacy against Shigella flexneri (Shigella flexneri) | efficacy against Streptococcus agalactiae (Streptococcus agalactiae) | efficacy against Proteus vulgaris (Proteus vulgaris) | efficacy against Enterobacter sakazakii (Enterobacter sakazakii) | efficacy against Haemophilus influenzae (Haemophilus influenzae) | efficacy against Klebsiella (Calymmatobacterium) granulomatis [6] | efficacy against Staphylococcus epidermidis [8]
no: efficacy against Campylobacter jejuni (Campylobacter jejuni) | efficacy against Legionella pneumophila (Legionella pneumophila) | efficacy against Clostridium difficile (Clostridium difficile) | efficacy against Acinetobacter lwoffii (Acinetobacter lwoffii) | efficacy against Corynebacterium jeikeium (Corynebacterium jeikeium) | efficacy against Pseudomonas aeruginosa (Pseudomonas aeruginosa) | efficacy against Acinetobacter baumannii (Acinetobacter baumannii) | efficacy against Francisella tularensis (Francisella tularensis) | efficacy against Enterococcus faecalis (Enterococcus faecalis) | efficacy against Vibrio cholerae (Vibrio cholerae) | efficacy against Corynebacterium urealyticum [3] | efficacy against Enterococcus faecium (Enterococcus faecium) | efficacy against Acinetobacter calcoaceticus [5] | efficacy against Chlamydia trachomatis (Chlamydia trachomatis) | efficacy against Chlamydia pneumoniae (Chlamydia pneumoniae) | efficacy against Yersinia pestis (Yersinia pestis) | efficacy against Mycoplasma pneumoniae (Mycoplasma pneumoniae) | efficacy against Methicillin resistant staph aureus (MRSA) [7] | efficacy against Bordetella pertussis (Bordetella pertussis) | efficacy against Chlamydia psittaci (Chlamydia psittaci) | efficacy against Diphtheroids (Diphtheroids) | efficacy against Rickettsiae (Rickettsiae)

Colistimethate
no: efficacy against Legionella pneumophila (Legionella pneumophila) | efficacy against Bacteroides fragilis (Bacteroides fragilis) | efficacy against Clostridium difficile (Clostridium difficile) | efficacy against Providencia rettgeri (Providencia rettgeri) | efficacy against Proteus mirabilis (Proteus mirabilis) | efficacy against Streptococcus pneumoniae (Streptococcus pneumoniae) | efficacy against Corynebacterium jeikeium (Corynebacterium jeikeium) | efficacy against Streptococcus pyogenes (Streptococcus pyogenes) | efficacy against Haemophilus parainfluenzae [1] | efficacy against Viridans group streptococci [2] | efficacy against Neisseria gonorrhoeae (Neisseria gonorrhoeae) | efficacy against Peptostreptococcus (Peptostreptococcus) | efficacy against Providencia stuartii (Providencia stuartii) | efficacy against Enterococcus faecalis (Enterococcus faecalis) | efficacy against Vibrio cholerae (Vibrio cholerae) | efficacy against Corynebacterium urealyticum [3] | efficacy against Staphylococcus aureus (MSSA) [4] | efficacy against Serratia marcescens (Serratia marcescens) | efficacy against Brucella species (Brucella species) | efficacy against Enterococcus faecium (Enterococcus faecium) | efficacy against Moraxella catarrhalis (Moraxella catarrhalis) | efficacy against Chlamydia trachomatis (Chlamydia trachomatis) | efficacy against Neisseria meningitidis (Neisseria meningitidis) | efficacy against Chlamydia pneumoniae (Chlamydia pneumoniae) | efficacy against Streptococcus agalactiae (Streptococcus agalactiae) | efficacy against Proteus vulgaris (Proteus vulgaris) | efficacy against Mycoplasma pneumoniae (Mycoplasma pneumoniae) | efficacy against Methicillin resistant staph aureus (MRSA) [7] | efficacy against Bordetella pertussis (Bordetella pertussis) | efficacy against Staphylococcus epidermidis [8] | efficacy against Chlamydia psittaci (Chlamydia psittaci) | efficacy against Diphtheroids (Diphtheroids)
yes: efficacy against Pseudomonas aeruginosa (Pseudomonas aeruginosa) | efficacy against Klebsiella oxytoca (Klebsiella oxytoca) | efficacy against Escherichia coli (Escherichia coli) | efficacy against Enterobacter aerogenes (Enterobacter aerogenes) | efficacy against Pseudomonas fluorescens (Pseudomonas fluorescens) | efficacy against Enterobacter cloacae (Enterobacter cloacae) | efficacy against Klebsiella pneumoniae (Klebsiella pneumoniae) | efficacy against Enterobacter sakazakii (Enterobacter sakazakii) | efficacy against Klebsiella (Calymmatobacterium) granulomatis [6]
